# Source: US9221985B2, “Solvent compositions” (TBF Environmental Technology, Inc., priority 2013, dated 2015)
# Like-named read-outs stand apart in the source and are kept apart here.
# Key:
# [1] = Viscosity of Paraloid B-66 DMC acrylic resin with reduction in solids; assay type: physicochemical
# [2] = cited from earlier work
# [3] = Hansen solubility parameters
# Text: In some embodiments, a solvent composition according to the present disclosure includes an acetate ester, such as MA, EA, or TBAc, in combination with one or more additional reagents to increase dispersion and decrease hydrogen bonding and/or to decrease the polarity of the solvent composition.
# [4] = Evaporation rate relative to n-butyl acetate / xylene; assay type: physicochemical
# Text: […]. […] Without being bound to any particular theory, the “tail” solvent may slow the drying of a coating towards the end, allowing time for it to flow and level, and preventing dry spray, thereby improving the film appearance.
# The evaporation rate of Formulation 1vs xylene was examined (FIG. 1). Formulation 1 was faster evaporating than xylene by a factor of 1.63-1.65. However it was apparent that the evaporation rate of Formulation 1 slowed towards the end. This slower “Tail” would aid in flow and leveling and help prevent dry spray.
# [5] = Physical/chemical characteristics of the solvents (specific gravity, flash point, boiling point, viscosity, surface tension, volatility); details: for Surface tension: at 20° C.
# [6] = Solvency or reduction characteristics: viscosity of epoxy resin reduced with solvent; assay type: physicochemical
# [7] = reduced to 35.0% non-volatile with the solvent
# [8] = reduced to 40.0% non-volatile with the solvent
# [9] = relative to n-butyl acetate = 1
# [10] = EPON 828 reduced to 95% solids content by weight
Compound,"Viscosity of Paraloid B-66 DMC [1, 7] [cps]","Viscosity of Paraloid B-66 DMC [1, 8] [cps]",δD (dispersion) [3] [cal^1/2 cm^−3/2],δH (hydrogen bonding) [3] [cal^1/2 cm^−3/2],δP (polar) [3] [cal^1/2 cm^−3/2],"Evaporation rate (n-butyl acetate = 1) [4, 9]",Boiling Point [5],Viscosity @ 20° C. [5],Specific Gravity (@25° C.) [5],Flashpoint (TCC) [5],Surface tension [5],"Viscosity @ 20 RPM ([6]; EPON 828, 50% solids content) [cps]","Viscosity @ 20 RPM ([6]; EPON 828, 55% solids content) [cps]","Viscosity @ 20 RPM ([6]; EPON 828, 60% solids content) [cps]","Viscosity @ 20 RPM ([6]; EPON 828, 65% solids content) [cps]","Viscosity @ 20 RPM ([6]; EPON 828, 70% solids content) [cps]","Viscosity @ 20 RPM ([6]; EPON 828, 75% solids content) [cps]","Viscosity @ 20 RPM ([6]; EPON 828, 80% solids content) [cps]","Viscosity @ 20 RPM ([6]; EPON 828, 85% solids content) [cps]","Viscosity @ 20 RPM ([6]; EPON 828, 90% solids content) [cps]",further results
"COC(=O)OC [DMC, dimethyl carbonate]",370,970,–,–,–,–,–,–,–,–,–,–,–,–,–,–,–,–,–,–,–
"COC(C)=O [MA, methyl acetate]",–,–,7.6,3.7,3.5,6.2,56 °C,0.37 (mPa · s) cP,0.93,−4 °C,24.8 dyn/cm,–,–,–,–,–,–,–,–,–,solubility in water ([2]; in water at room temperature): 25%; stability ([2]; strong aqueous bases or aqueous acids): not stable in the presence of strong aqueous bases or aqueous acids; δ (Hansen solubility parameter) [3]: 9.5 cal^1/2 cm^−3/2
"FC(F)(F)c1ccc(Cl)cc1 [PCBTF, parachlorobenzotrifluoride]",450,1050,8.8,1.9,2.9,0.9,139 °C,0.79 (mPa · s) cP,1.34,109 °C,25 dyn/cm,27,38,52,91,153,278,544,1010,1900,"δ (Hansen solubility parameter) [3]: 9.15 cal^1/2 cm^−3/2; Viscosity @ 20 RPM [6, 10]: 5125 cps"
"CC(=O)OC(C)(C)C [TBAc, tert-butyl acetate]",290,780,7,2.9,1.7,–,98 °C,0.7 (mPa · s) cP,0.87,16.7 °C,22.4 dyn/cm,15,19,22,26,81,93,192,430,1150,"Evaporation rate (n-butyl acetate = 1) [4]: 2.8; Viscosity @ 20 RPM [6, 10]: 4250 cps"
"Cc1ccccc1 [Toluene, toluene]",–,–,8.8,0.98,0.68,1.9,–,0.59 (mPa · s) cP,0.86,16 °C,27.73 dyn/cm,–,–,–,–,–,–,–,–,–,–
xylene [Xylenes],580,1500,9.2,1.15,1.3,–,110.6-144 °C,0.34-0.8 (mPa · s) cP,0.87,17-25 °C,25.32-28.27 dyn/cm,13,17,19,28,40,76,148,330,880,"Evaporation rate (n-butyl acetate = 1) [4]: 0.9; Flashpoint (TCC) ([5]; listed as xylene): 30 °C; Viscosity @ 20 RPM [6, 10]: 3350 cps"
